Results taken from paper PMC8634879, “Design, Synthesis, and Biological Evaluation of Pyrano[2,3-c]-pyrazole–Based RalA Inhibitors Against Hepatocellular Carcinoma” (Frontiers in Chemistry, 2021).
Where two headings read alike, the source gives them in different places.

Tests used:
RalB = target: T1, RalB (Homo sapiens, UniProt P11234); assay: ELISA-based RalB activity assay (RalBP1-coated plates, lysates of compound-treated cells); type: biochemical
T1 construct: expressed in transfected cells; host or cells: HepG2 (from b6; the methods paragraph names no cell line)
T1 sequence (P11234 1-203 limits assumed): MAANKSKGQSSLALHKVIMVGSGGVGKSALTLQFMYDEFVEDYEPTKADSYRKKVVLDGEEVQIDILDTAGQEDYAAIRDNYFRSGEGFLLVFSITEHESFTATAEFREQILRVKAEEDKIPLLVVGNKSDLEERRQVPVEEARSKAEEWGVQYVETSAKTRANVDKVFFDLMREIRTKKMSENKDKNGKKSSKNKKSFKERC
In short: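 Lysates of compound- or vehicle-treated cells, cleared by cold centrifugation, incubated overnight at 4°C on RalBP1-coated plates. Bound Ral detected with mouse anti-FLAG then HRP anti-mouse antibody; reaction stopped with 2 mol/L sulfuric acid and read at OD450.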

HepG2 cells [1] = assay: Cell proliferation assay (MTT), HepG2; type: cell-based; conditions: Homo sapiens
In short: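 HCC lines cultured in DMEM with 10% FBS and streptomycin; cytotoxicity measured by MTT method as previously described.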

Hep3B cells = assay: Cell proliferation assay (MTT), Hep3B; type: cell-based; conditions: Homo sapiens, average of at least three independent replicates ± SD, read-out: Anti-proliferative activities (IC50, μM) Hep3B
Experimental: The antibodies recognizing LC3, p62/SQSTM1, RalA, RalB, and GAPDH were purchased from Proteintech (Wuhan, China). HCC cell lines, including HepG2, Hep3B, Huh-7, and SMMC-7721, were obtained from the Chinese Center for Type Culture Collection (Wuhan, China) and cultured in DMEM (Dulbecco’s modified Eagle’s medium) with 10% FBS (fetal bovine serum) and streptomycin. Cytotoxicity assays were performed by using the MTT method as previously described.
The in vitro RalA/B bioactivity assays were performed following methods outlined in previous reports. ([Yan et al., 2016]; [Zhang et al., 2018]; [Walsh et al., 2019]; [Bum-Erdene et al., 2020]). In brief, the lysates of the test compound or vehicle-treated cells were cleared using cold centrifugation, and supernatants were collected. An RalBP1 solution was added to 96-well plates and incubated for 1–2 h, and then the plates were washed thrice using ELISA buffer. Next, cellular lysates were added, and samples were incubated overnight at 4°C. Then, ice-cold mouse anti-FLAG antibody was added, and samples were incubated for one more hour. After subsequent washing with ELISA buffer thrice, the HRP-conjugated anti-mouse antibody was added, and samples were incubated for another hour. Then, the HRP substrate was added. Antigen–antibody reactions were quenched by the addition of sulfuric acid (2 mol/L). Remaining RalA/B was detected by the OD450 values which were collected by using a plate reader. Cell proliferation assays, colony formation assays, apoptosis assays, GST pulldown, and Western blotting were used following methods outlined in our previous reports. ([Zhou et al., 2015]; [Zhang et al., 2016]; [Yang et al., 2017]; [He et al., 2019]). Autophagy levels and protein immunoblotting were used following the methods mentioned in our previous reports ([Pan et al., 2018]; [Wang et al., 2018]; [Hao et al., 2019]; [Wang et al., 2019]; [Peng et al., 2020]). Detailed experimental procedures are described in supporting materials.

HepG2 cells [2] = assay: Autophagy assays in HepG2 cells (TEM, Western blotting, GFP-LC3 puncta); type: cell-based
Experimental: Several reports have characterized RalA/B potential regulatory roles in autophagy ([Zhang et al., 2019]; [Pang et al., 2020]; [Zhang et al., 2020]). Considering the dual effect of HCC autophagy, we assessed changes in HepG2 cell autophagy levels after the addition of 0.5 or 2.0 μM of 4p, before incubation. Based on HepG2 cells’ TEM images with or without 4p (Figure 5B), autophagy vacuoles per cell decreased in the 4p-treated group (p < 0.01). After 4p treatments, LC3-II and ATG5 protein levels declined and SQSTM1 increased. […] In GFP-LC3–transfected HepG2 cells, cytoplasm LC3 fluorescent puncta numbers also declined after 4p treatments. […] The in vivo antitumor capacities of 4p were determined on a HepG2 subcutaneous xenograft model. The 4p intraperitoneal injections were set to 15 mg/kg and 60 mg/kg, according to in vitro results. […] The potential 4p molecular mechanisms were further validated using immunofluorescence and IHC analyses of tissue sections stained by antibodies against TUNEL, Ki-67, RalA, LC3-II, and SQSTM1. […] Therefore, the in vivo results were consistent with in vitro experiments. […]
The autophagy assay is relied on HepG2 cells transfected by GFP-LC3. In brief, the HepG2 cells after transfecting are processed by saline or compound 4p for 6 h, after that the cells are going to fix by paraformaldehyde and the phenomenon of autophagosome punctures can be observed through the accumulated of GFP-LC3 under laser confocal microscopy.
2. Western blotting analysis
For western blotting, the extracts of total protein from each sample were treated in accordance with the method we described previously. In short, the total proteins were loaded into the SDS-PAGE gel and separated through the different of their molecular weight in electrophoresis, after that the separated proteins were shifted into a PVDF membrane (Millipore, Burlington, MA, USA) and incubated through corresponding membrane react pathways. The resulted membranes reacted with major antibodies and HRP (horseradish peroxidase)-conjugated secondary antibodies. The expression profiles of target proteins can be identified through an enhanced chemiluminescence (ECL) substrate. […]

COc1ccc(S(=O)(=O)NC2=C(C#N)C(c3ccc(C(F)(F)F)cc3)c3c(C)nn(-c4ccccc4)c3O2)cc1 (stereo not drawn) [4p, N-(5-cyano-3-methyl-1-phenyl-4-(4-(trifluoromethyl)phenyl)-1,4-dihydropyrano[2,3-c]-pyrazol-6-yl)-4-methoxybenzenesulfonamide] was tested, and the remaining activity at 1 µM (RalB; 1 μM compound, % control = active (RalBP1-bound) RalB remaining) was 22%, the IC50 (RalB; enzymatic inhibition, average of at least three independent replicates ± SD, read-out: Kinase activities (IC50, μM) RalB) was 0.41 ± 0.07 µM and the IC50 (HepG2 cells [1]; HepG2, Table 1, cell proliferation inhibition, read-out: IC50 (μM) HepG2) was 2.28 ± 0.23 µM. For the same molecule, the IC50 (HepG2 cells [1]; HepG2, Table 2, average of at least three independent replicates ± SD, read-out: Anti-proliferative activities (IC50, μM) HepG2) was 2.28 ± 0.23 µM, the IC50 (Hep3B cells) was 2.71 ± 0.27 µM and the “cytoplasm LC3 fluorescent puncta numbers” value (HepG2 cells [2]; GFP-LC3–transfected HepG2 cells, 2.0 μM) was “declined”. The “LC3-II and ATG5 protein levels (Western blotting)” value (HepG2 cells [2]; HepG2, 0.5 or 2.0 μM) was “declined”, the “SQSTM1 protein level (Western blotting)” value (HepG2 cells [2]; HepG2, 0.5 or 2.0 μM) was “increased” and the “autophagy vacuoles per cell (TEM)” value (HepG2 cells [2]; HepG2, 4p-treated group, p < 0.01) was “decreased”.
